# Assay results from paper PMC4126177, “Molecular docking simulation studies on potent butyrylcholinesterase inhibitors obtained from microbial transformation of dihydrotestosterone” (Chemistry Central Journal, 2013).
# Like-named read-outs stand apart in the source and are kept apart here.
# Molecular target: T1, Equine serum BChE (butyrylcholinesterase) (Equus caballus, UniProt P81908)
# T1 construct: commercial native enzyme from horse serum (Sigma); docking used human BChE 1P0P, not the assayed protein
# Assay: DTNB (Ellman-type) spectrophotometric assay, […] nm
# Format: biochemical
# T1 sequence (P81908 whole entry): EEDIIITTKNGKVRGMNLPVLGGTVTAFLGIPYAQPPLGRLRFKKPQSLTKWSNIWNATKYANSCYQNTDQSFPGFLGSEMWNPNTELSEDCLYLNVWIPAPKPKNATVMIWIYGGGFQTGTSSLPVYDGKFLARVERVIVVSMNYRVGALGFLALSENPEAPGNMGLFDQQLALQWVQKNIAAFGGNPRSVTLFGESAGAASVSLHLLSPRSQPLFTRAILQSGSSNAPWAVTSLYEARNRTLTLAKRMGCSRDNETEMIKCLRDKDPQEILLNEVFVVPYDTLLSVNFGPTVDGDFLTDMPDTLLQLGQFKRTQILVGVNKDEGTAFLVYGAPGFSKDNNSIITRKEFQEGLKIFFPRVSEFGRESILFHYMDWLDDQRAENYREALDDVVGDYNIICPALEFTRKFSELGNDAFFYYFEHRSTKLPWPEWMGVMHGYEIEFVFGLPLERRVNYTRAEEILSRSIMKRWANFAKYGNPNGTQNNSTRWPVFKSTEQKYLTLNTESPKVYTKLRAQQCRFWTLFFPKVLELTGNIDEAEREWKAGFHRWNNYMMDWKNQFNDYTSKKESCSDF
SMILES,IC50,IC50 (read-out: Mean ± SEM^ a [ μ M])
"C[C@]12C=CC(=O)C=C1CC[C@@H]1[C@@H]2CC[C@]2(C)C(=O)CC[C@@H]12 [compound 5, Androst-1,4-dien-3,17-dione]",11.8 ± 0.5 µM,–
"C[C@]12CCC(=O)C=C1CC[C@@H]1[C@@H]2[C@H](O)C[C@]2(C)C(=O)CC[C@@H]12 [compound 6, 11α-Hydroxyandrost-4-en-3,17-dione]",–,20.5 ± 0.2 µM
